Calls of active or inactive are those of the source. The rule behind the calls is not given here.
Tests used:
[1] = Toxicity in female BALB/c nude mouse assessed as change in body weight at 10 to 20 mg/kg, iv measured for 30 days; type: organism-based; conditions: in vivo, 720 h, dose 10-20 mg/kg, time 30 day
MDA-MB-231 [2] = assay: Downregulation of CD44 expression in human MDA-MB-231 cells by Western blot analysis; type: functional, cell-based
BT-549 [3] = assay: Downregulation of Bcl-2 level in human BT-549 cells measured after 48 hrs by Western blot analysis; type: functional, cell-based; conditions: dose 0.05-0.5 µM
[4] = target: T1, Signal transducer and activator of transcription 3 (Homo sapiens, UniProt P40763); assay: Inhibition of STAT3 phosphorylation in human MDA-MB-231 cells assessed as downregulation of TAGLN expression level; type: cell-based
[5] = target: Tyrosine-protein kinase JAK1 (Homo sapiens) (UniProt P23458); assay: Inhibition of JAK1 (unknown origin) at upto 10 uM
BT-549 [6] = assay: Inhibition colony formation in human BT-549 cells harbouring STAT3 siRNA at 0.1 uM after 14 days by crystal violet staining based analysis; type: functional, cell-based; conditions: time 14.0 day
[7] = Toxicity in female BALB/c nude mouse assessed as drug tolerance at 10 to 20 mg/kg, iv measured after 30 days; type: organism-based; conditions: in vivo, 720 h, dose 10-20 mg/kg, time 30 day
MDA-MB-231 [8] = assay: Induction of apoptosis in human MDA-MB-231 cells assessed as late apoptotic at 0.5 uM incubated for 48 hrs by Annexin V and PI staining based flow cytometry analysis (reference value: 2.71%); type: functional
[9] = Toxicity in female BALB/c nude mouse assessed as effect on liver at 10 to 20 mg/kg, iv measured after 30 days by H and E staining based analysis; type: organism-based; conditions: in vivo, 720 h, dose 10-20 mg/kg, time 30 day
BT-549 [10] = assay: Effect on STAT3 expression in human BT-549 cells at 0.1 microM measured after 8 to 48 hrs by Western blot analysis; type: functional, cell-based; conditions: time 8-48 hrs
MDA-MB-231 [11] = assay: Effect on JAK1 phosphorylation level in human MDA-MB-231 cells at 0.05 to 0.5 uM measured after 48 hrs by Western blot analysis; type: functional, cell-based; conditions: dose 0.05-0.5 µM
[12] = Toxicity in female BALB/c nude mouse assessed as effect on heart at 10 to 20 mg/kg, iv measured after 30 days by H and E staining based analysis; type: organism-based; conditions: in vivo, 720 h, dose 10-20 mg/kg, time 30 day
BT-549 [13] = assay: Inhibition of cell invasion in human BT-549 cells assessed as decrease in number of invaded cells incubated for 24 hrs by crystal violet staining based inverted microscopic analysis; type: functional; conditions: dose 0.05-0.5 µM
[14] = target: T1, Signal transducer and activator of transcription 3; assay: Competitive binding affinity to STAT3 SH2 domain (unknown origin) expressed in HEK293T cells assessed as decrease in fluorescence intensity by dual luciferase analysis; type: cell-based; conditions: dose 0.05-0.5 µM
MDA-MB-231 [15] = assay: Inhibition of colony formation in human MDA-MB-231 cells at low concentration measured after 14 days by crystal violet staining based analysis; type: functional, cell-based; conditions: time 14.0 day
[16] = target: T1, Signal transducer and activator of transcription 3; assay: Inhibition of STAT3 phosphorylation in human MDA-MB-231 cells assessed as upregulation of HMOX1 expression level; type: cell-based
[17] = target: Tyrosine-protein kinase JAK2 (Homo sapiens) (UniProt O60674); assay: Inhibition of JAK2 (unknown origin) at upto 10 uM
BT-549 [18] = assay: Effect on STAT5 phosphorylation level in human BT-549 cells at 0.05 to 0.5 uM measured after 48 hrs by Western blot analysis; type: functional, cell-based; conditions: dose 0.05-0.5 µM
[19] = Toxicity in female BALB/c nude mouse assessed as effect on kidney at 10 to 20 mg/kg, iv measured after 30 days by H and E staining based analysis; type: organism-based; conditions: in vivo, 720 h, dose 10-20 mg/kg, time 30 day
BT-549 [20] = assay: Inhibition of colony formation in human BT-549 cells measured after 14 days by crystal violet staining based analysis; type: functional, cell-based; conditions: dose 0.1-0.5 µM, time 14.0 day
MDA-MB-231 [21] = assay: Effect on ERK12 phosphorylation level in human MDA-MB-231 cells at 0.05 to 0.5 uM measured after 48 hrs by Western blot analysis; type: functional, cell-based; conditions: dose 0.05-0.5 µM
MDA-MB-231 [22] = assay: Downregulation of MMP2 expression level in human MDA-MB-231 cells by Western blot analysis; type: functional, cell-based
BT-549 [23] = assay: Downregulation of CD44 expression in human BT-549 cells by Western blot analysis; type: functional, cell-based
MDA-MB-231 [24] = assay: Antitumor activity against human MDA-MB-231 cells xenografted in female nude BALB/c mouse model assessed as tumor growth inhibition at 20 mg/kg, ip administered every other day for 30 days relative to control; type: functional; conditions: MDA-MB-231, 720 h, time 30 day, read-out: TGI
MDA-MB-231 [25] = assay: Downregulation of Bcl-2 level in human MDA-MB-231 cells measured after 48 hrs by Western blot analysis; type: functional, cell-based; conditions: dose 0.05-0.5 µM
[26] = target: T1, Signal transducer and activator of transcription 3; assay: Inhibition of STAT3 phosphorylation in human MDA-MB-231 cells assessed as downregulation of F5 level; type: cell-based
[27] = target: T1, Signal transducer and activator of transcription 3; assay: Inhibition of STAT3 phosphorylation at Tyr705 residue in human BT-549 cells at 0.1 uM by Western blot analysis; type: cell-based; conditions: time 8-48 hrs
BT-549 [28] = assay: Inhibition of cell migration in human BT-549 cells assessed as reduction in wound closure proportion at 0.05 to 0.5 uM incubated for 24 hrs by inverted microscopic analysis; type: functional, cell-based; conditions: dose 0.05-0.5 µM
BT-549 [29] = assay: Effect on ERK1/2 phosphorylation level in human BT-549 cells at 0.05 to 0.5 uM measured after 48 hrs by Western blot analysis; type: functional, cell-based; conditions: dose 0.05-0.5 µM
MDA-MB-231 [30] = assay: Antitumor activity against human MDA-MB-231 cells xenografted in female nude BALB/c mouse model assessed as reduction in tumor volume at 20 mg/kg, ip administered every other day for 30 days (reference value: 1522.98 millimeter); type: functional; conditions: time 30 day
MDA-MB-231 [31] = assay: Induction of apoptosis in human MDA-MB-231 cells assessed as late apoptotic at 0.05 uM incubated for 48 hrs by Annexin V and PI staining based flow cytometry analysis (reference value: 2.71%); type: functional
[32] = Half life in female BALB/c nude mouse administered as iv dose; type: ADME, organism-based; conditions: in vivo
[33] = target: T1, Signal transducer and activator of transcription 3; assay: Inhibition of STAT3 in human MDA-MB-231 cells assessed as upregulation of MCL1 level; type: cell-based
MDA-MB-231 [34] = assay: Antitumor activity against human MDA-MB-231 cells xenografted in female nude BALB/c mouse model assessed as reduction in tumor volume at 10 mg/kg, ip administered every other day for 30 days (reference value: 1522.98 millimeter); type: functional; conditions: time 30 day
[35] = target: T1, Signal transducer and activator of transcription 3; assay: Inhibition of STAT3 in human MDA-MB-231 cells assessed as upregulation of NDUFAB1 level; type: cell-based
BT-549 [36] = assay: Effect on STAT1 phosphorylation level in human BT-549 cells at 0.05 to 0.5 uM measured after 48 hrs by Western blot analysis; type: functional, cell-based; conditions: dose 0.05-0.5 µM
[37] = target: T1, Signal transducer and activator of transcription 3; assay: Inhibition of STAT3 phosphorylation at Tyr705 residue at Tyr705 residue in human MDA-MB-231 cells measured after 8 to 48 hrs by Western blot analysis; type: cell-based; conditions: dose 0.1 µM, time 8-48 hrs
BT-549 [38] = assay: Effect on JAK1 phosphorylation level in human BT-549 cells at 0.05 to 0.5 uM measured after 48 hrs by Western blot analysis; type: functional, cell-based; conditions: dose 0.05-0.5 µM
MDA-MB-231 [39] = assay: Effect on STAT1 phosphorylation level in human MDA-MB-231 cells at 0.05 to 0.5 uM measured after 48 hrs by Western blot analysis; type: functional, cell-based; conditions: dose 0.05-0.5 µM

T1 sequence (P40763 whole entry): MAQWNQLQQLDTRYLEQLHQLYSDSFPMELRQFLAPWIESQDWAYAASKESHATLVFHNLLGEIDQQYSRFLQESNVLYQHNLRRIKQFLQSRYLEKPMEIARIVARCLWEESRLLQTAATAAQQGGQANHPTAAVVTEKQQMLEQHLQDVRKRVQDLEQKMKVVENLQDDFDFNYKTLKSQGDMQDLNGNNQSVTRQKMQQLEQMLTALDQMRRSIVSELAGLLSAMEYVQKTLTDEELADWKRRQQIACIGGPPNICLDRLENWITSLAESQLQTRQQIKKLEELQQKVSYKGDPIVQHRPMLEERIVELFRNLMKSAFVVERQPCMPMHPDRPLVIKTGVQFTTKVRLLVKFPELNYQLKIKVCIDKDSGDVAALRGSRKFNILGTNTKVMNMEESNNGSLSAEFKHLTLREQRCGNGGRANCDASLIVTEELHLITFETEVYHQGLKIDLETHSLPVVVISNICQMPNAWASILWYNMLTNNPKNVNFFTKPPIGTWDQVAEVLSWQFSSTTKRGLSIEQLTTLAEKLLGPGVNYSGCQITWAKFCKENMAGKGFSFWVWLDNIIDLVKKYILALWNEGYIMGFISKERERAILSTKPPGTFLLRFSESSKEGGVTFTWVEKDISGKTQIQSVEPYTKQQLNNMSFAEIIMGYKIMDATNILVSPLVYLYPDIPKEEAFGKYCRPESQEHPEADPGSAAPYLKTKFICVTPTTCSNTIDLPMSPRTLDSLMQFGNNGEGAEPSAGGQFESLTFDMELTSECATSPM
Chain of Tyrosine-protein kinase JAK2 (Homo sapiens) (O60674 whole entry): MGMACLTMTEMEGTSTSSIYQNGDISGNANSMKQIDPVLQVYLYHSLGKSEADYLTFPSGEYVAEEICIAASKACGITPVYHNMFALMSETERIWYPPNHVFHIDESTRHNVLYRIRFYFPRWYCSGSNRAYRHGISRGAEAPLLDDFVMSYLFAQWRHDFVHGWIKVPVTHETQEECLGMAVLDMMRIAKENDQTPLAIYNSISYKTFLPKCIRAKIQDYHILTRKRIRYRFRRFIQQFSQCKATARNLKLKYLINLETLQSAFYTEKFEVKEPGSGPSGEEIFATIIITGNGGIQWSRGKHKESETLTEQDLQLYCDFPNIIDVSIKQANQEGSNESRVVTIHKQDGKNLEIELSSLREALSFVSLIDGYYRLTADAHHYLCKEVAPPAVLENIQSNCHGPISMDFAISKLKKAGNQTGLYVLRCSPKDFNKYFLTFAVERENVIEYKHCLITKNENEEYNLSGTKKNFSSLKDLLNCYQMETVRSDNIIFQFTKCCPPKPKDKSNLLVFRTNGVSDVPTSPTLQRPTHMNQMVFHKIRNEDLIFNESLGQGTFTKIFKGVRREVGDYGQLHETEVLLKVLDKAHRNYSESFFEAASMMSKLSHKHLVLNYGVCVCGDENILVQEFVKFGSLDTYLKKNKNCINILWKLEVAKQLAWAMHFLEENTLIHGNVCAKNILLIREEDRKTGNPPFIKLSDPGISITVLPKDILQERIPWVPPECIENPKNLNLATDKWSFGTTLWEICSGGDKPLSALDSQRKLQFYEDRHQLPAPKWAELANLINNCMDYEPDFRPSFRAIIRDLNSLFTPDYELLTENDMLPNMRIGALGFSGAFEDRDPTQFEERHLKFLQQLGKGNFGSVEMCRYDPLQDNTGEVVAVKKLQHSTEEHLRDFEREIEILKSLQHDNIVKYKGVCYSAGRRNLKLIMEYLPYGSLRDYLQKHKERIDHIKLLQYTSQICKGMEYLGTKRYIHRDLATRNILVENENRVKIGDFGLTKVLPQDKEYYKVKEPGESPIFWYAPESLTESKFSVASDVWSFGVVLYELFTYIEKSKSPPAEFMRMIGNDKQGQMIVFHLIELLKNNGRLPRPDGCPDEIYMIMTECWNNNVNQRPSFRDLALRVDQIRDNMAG
Chain of Tyrosine-protein kinase JAK1 (Homo sapiens) (P23458 whole entry): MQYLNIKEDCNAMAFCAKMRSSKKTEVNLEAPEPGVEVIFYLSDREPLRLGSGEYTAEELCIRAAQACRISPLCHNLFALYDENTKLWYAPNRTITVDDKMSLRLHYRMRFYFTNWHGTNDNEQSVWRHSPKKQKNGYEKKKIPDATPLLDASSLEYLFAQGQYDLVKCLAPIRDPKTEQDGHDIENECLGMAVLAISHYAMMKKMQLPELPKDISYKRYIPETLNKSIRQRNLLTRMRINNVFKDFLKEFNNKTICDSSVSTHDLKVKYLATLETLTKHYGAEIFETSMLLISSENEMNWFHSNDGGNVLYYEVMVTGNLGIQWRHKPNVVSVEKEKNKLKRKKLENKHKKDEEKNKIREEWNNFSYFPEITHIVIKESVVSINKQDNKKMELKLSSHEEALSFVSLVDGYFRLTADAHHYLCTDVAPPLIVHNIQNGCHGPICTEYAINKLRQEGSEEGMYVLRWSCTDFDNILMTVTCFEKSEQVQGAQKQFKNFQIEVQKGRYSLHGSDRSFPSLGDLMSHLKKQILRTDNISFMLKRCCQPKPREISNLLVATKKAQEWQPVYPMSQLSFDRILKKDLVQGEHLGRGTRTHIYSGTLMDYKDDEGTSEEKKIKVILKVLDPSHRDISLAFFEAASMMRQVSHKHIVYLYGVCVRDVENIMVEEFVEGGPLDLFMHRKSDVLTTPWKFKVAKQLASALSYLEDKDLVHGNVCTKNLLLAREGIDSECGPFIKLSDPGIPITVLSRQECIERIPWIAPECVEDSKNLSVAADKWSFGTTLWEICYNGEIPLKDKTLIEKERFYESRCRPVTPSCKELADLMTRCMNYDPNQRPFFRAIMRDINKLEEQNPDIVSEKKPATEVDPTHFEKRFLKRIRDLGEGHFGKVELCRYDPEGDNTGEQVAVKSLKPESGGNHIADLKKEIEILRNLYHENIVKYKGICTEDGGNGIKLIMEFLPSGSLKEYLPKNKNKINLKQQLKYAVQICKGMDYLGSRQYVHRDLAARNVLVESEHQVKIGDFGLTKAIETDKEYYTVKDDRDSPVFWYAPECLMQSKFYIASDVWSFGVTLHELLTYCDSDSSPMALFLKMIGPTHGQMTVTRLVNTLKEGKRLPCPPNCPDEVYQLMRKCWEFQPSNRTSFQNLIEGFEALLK

COc1cccc(C(=O)Nc2sc3c(c2C#N)CCN(C(=O)Nc2ccccc2OC)C3)c1
Activity [1]: Toxic | Activity (MDA-MB-231 [2]): Active | Activity (BT-549 [3]): Dose-dependent-effect | inhibition [4]: Active | inhibition [5]: Active; Compound Showed Little Inhibitory Effect | inhibition (BT-549 [6]): inactive | Activity [7]: Non-toxic | Activity (MDA-MB-231 [8]): 19.18% | Activity [9]: Non-toxic | Activity (BT-549 [10]): Active; Compound Showed Little Impact On Stat3 Expression | Activity (MDA-MB-231 [11]): inactive | Activity [12]: Non-toxic | inhibition (BT-549 [13]): Dose-dependent-effect | Activity [14]: Dose-dependent-effect | inhibition (MDA-MB-231 [15]): Active; Compound Showed Robust Inhibition Compared To Positive Control | inhibition [16]: Active | inhibition [17]: Active; Compound Showed Little Inhibitory Effect | Activity (BT-549 [18]): inactive | Activity [19]: Non-toxic | inhibition (BT-549 [20]): Dose-dependent-effect | Activity (MDA-MB-231 [21]): inactive | Activity (MDA-MB-231 [22]): Active | Activity (BT-549 [23]): Active | inhibition in vivo at 20 mg/kg (MDA-MB-231 [24]): 58% | Activity (MDA-MB-231 [25]): Dose-dependent-effect | inhibition [26]: Active | inhibition [27]: Time-dependent-effect | inhibition (BT-549 [28]): Active | Activity (BT-549 [29]): inactive | tumor volume (MDA-MB-231 [30]): 656 mm³ | Activity (MDA-MB-231 [31]): 12.78% | half-life [32]: 23 h | inhibition [33]: Active | tumor volume (MDA-MB-231 [34]): 762 mm³ | inhibition [35]: Active | Activity (BT-549 [36]): inactive | inhibition [37]: Dose-dependent-effect | Activity (BT-549 [38]): inactive | Activity (MDA-MB-231 [39]): inactive

Source: ChEMBL document CHEMBL6114982, “Structural optimization and characterization of highly potent and selective STAT3 inhibitors for the treatment of triple negative breast cancer” (Eur J Med Chem, 2025)
